Active and inactive are the calls of the source. The calls are words filed in the database; no cut-off is given here.
Experiments:
Escherichia coli [1] = experiment: Antibacterial activity against ESBL positive Escherichia coli ATCC 35218 assessed as inhibition of bacterial growth by CLSI protocol based method; assay type: functional
Pseudomonas aeruginosa [2] = experiment: Antibacterial activity Pseudomonas aeruginosa PAO1 assessed as inhibition of bacterial growth by CLSI protocol based method; assay type: functional
Acinetobacter baumannii [3] = experiment: Antibacterial activity against multi-drug resistant Acinetobacter baumannii clinical isolate 5 assessed as inhibition of bacterial growth by CLSI protocol based method; assay type: functional
Acinetobacter baumannii [4] = experiment: Antibacterial activity against multi-drug resistant Acinetobacter baumannii clinical isolate 10 assessed as inhibition of bacterial growth by CLSI protocol based method; assay type: functional
Acinetobacter baumannii [5] = experiment: Antibacterial activity against multi-drug resistant Acinetobacter baumannii clinical isolate 2 assessed as inhibition of bacterial growth by CLSI protocol based method; assay type: functional
Acinetobacter baumannii [6] = experiment: Antibacterial activity against multi-drug resistant Acinetobacter baumannii clinical isolate 4 assessed as inhibition of bacterial growth by CLSI protocol based method; assay type: functional
Acinetobacter baumannii [7] = experiment: Antibacterial activity against multi-drug resistant Acinetobacter baumannii clinical isolate 51 assessed as inhibition of bacterial growth by CLSI protocol based method; assay type: functional
Acinetobacter baumannii [8] = experiment: Antibacterial activity against multi-drug resistant Acinetobacter baumannii clinical isolate 14 assessed as inhibition of bacterial growth by CLSI protocol based method; assay type: functional
Acinetobacter baumannii [9] = experiment: Antibacterial activity against multi-drug resistant Acinetobacter baumannii clinical isolate 1 assessed as inhibition of bacterial growth by CLSI protocol based method; assay type: functional
Acinetobacter baumannii [10] = experiment: Antibacterial activity against multi-drug resistant Acinetobacter baumannii clinical isolate 43 assessed as inhibition of bacterial growth by CLSI protocol based method; assay type: functional
Escherichia coli [11] = experiment: Antibacterial activity against multi-drug resistant Escherichia coli clinical isolate 1 assessed as inhibition of bacterial growth by CLSI protocol based method; assay type: functional
Acinetobacter baumannii [12] = experiment: Synergistic antibacterial activity against Acinetobacter baumannii ATCC 19606 assessed as inhibition of bacterial growth by measuring polymyxin B MIC by checkerboard assay; assay type: functional
Acinetobacter baumannii [13] = experiment: Synergistic antibacterial activity against multi-drug resistant Acinetobacter baumannii clinical isolate 5 assessed as inhibition of bacterial growth by measuring polymyxin B MIC by checkerboard assay; assay type: functional
Acinetobacter baumannii [14] = experiment: Synergistic antibacterial activity against multi-drug resistant Acinetobacter baumannii clinical isolate 43 assessed as inhibition of bacterial growth by measuring polymyxin B MIC by checkerboard assay; assay type: functional
Escherichia coli [15] = experiment: Synergistic antibacterial activity against Escherichia coli ATCC 25922 assessed as inhibition of bacterial growth by measuring polymyxin B MIC by checkerboard assay; assay type: functional
Escherichia coli [16] = experiment: Synergistic antibacterial activity against multi-drug resistant Escherichia coli clinical isolate 1 assessed as inhibition of bacterial growth by measuring polymyxin B MIC by checkerboard assay; assay type: functional
Acinetobacter baumannii [17] = experiment: Synergistic antibacterial activity against multi-drug resistant Acinetobacter baumannii clinical isolate 5 assessed as inhibition of bacterial growth in presence of polymyxin B by checkerboard assay; assay type: functional
Acinetobacter baumannii [18] = experiment: Synergistic antibacterial activity against multi-drug resistant Acinetobacter baumannii clinical isolate 14 assessed as inhibition of bacterial growth in presence of polymyxin B by checkerboard assay; assay type: functional
Acinetobacter baumannii [19] = experiment: Synergistic antibacterial activity against multi-drug resistant Acinetobacter baumannii clinical isolate 43 assessed as inhibition of bacterial growth in presence of polymyxin B by checkerboard assay; assay type: functional
Escherichia coli [20] = experiment: Synergistic antibacterial activity against Escherichia coli ATCC 25922 assessed as inhibition of bacterial growth in presence of polymyxin B by checkerboard assay; assay type: functional
Escherichia coli [21] = experiment: Synergistic antibacterial activity against multi-drug resistant Escherichia coli clinical isolate 1 assessed as inhibition of bacterial growth in presence of polymyxin B by checkerboard assay; assay type: functional
Escherichia coli [22] = experiment: Synergistic antibacterial activity against Escherichia coli CG-4 expressing MCR-1 and NDM-1 assessed as inhibition of bacterial growth in presence of polymyxin B by checkerboard assay; assay type: functional
Acinetobacter baumannii [23] = experiment: Synergistic antibacterial activity against multi-drug resistant Acinetobacter baumannii clinical isolate 5 assessed as fractional inhibitory concentration index in presence of polymyxin B by checkerboard assay; assay type: functional
Acinetobacter baumannii [24] = experiment: Synergistic antibacterial activity against multi-drug resistant Acinetobacter baumannii clinical isolate 1 assessed as fractional inhibitory concentration index in presence of polymyxin B by checkerboard assay; assay type: functional
Escherichia coli [25] = experiment: Synergistic antibacterial activity against Escherichia coli ATCC 25922 assessed as fractional inhibitory concentration index in presence of polymyxin B by checkerboard assay; assay type: functional
Escherichia coli [26] = experiment: Synergistic antibacterial activity against multi-drug resistant Escherichia coli clinical isolate 1 assessed as fractional inhibitory concentration index in presence of polymyxin B by checkerboard assay; assay type: functional
Escherichia coli [27] = experiment: Synergistic antibacterial activity against Escherichia coli CG-4 expressing MCR-1 and NDM-1 assessed as fractional inhibitory concentration index in presence of polymyxin B by checkerboard assay; assay type: functional
Acinetobacter baumannii [28] = experiment: Synergistic antibacterial activity against Acinetobacter baumannii ATCC 19606 assessed as fractional inhibitory concentration index in presence of gentamycin by checkerboard assay; assay type: functional
Acinetobacter baumannii [29] = experiment: Synergistic antibacterial activity against multi-drug resistant Acinetobacter baumannii clinical isolate 5 assessed as fractional inhibitory concentration index in presence of gentamycin by checkerboard assay; assay type: functional
Acinetobacter baumannii [30] = experiment: Synergistic antibacterial activity against multi-drug resistant Acinetobacter baumannii clinical isolate 14 assessed as fractional inhibitory concentration index in presence of amikacin by checkerboard assay; assay type: functional
Acinetobacter baumannii [31] = experiment: Synergistic antibacterial activity against multi-drug resistant Acinetobacter baumannii clinical isolate 1 assessed as fractional inhibitory concentration index in presence of gentamycin by checkerboard assay; assay type: functional
Acinetobacter baumannii [32] = experiment: Synergistic antibacterial activity against multi-drug resistant Acinetobacter baumannii clinical isolate 43 assessed as fractional inhibitory concentration index in presence of amikacin by checkerboard assay; assay type: functional
Acinetobacter baumannii [33] = experiment: Synergistic antibacterial activity against multi-drug resistant Acinetobacter baumannii clinical isolate 43 assessed as fractional inhibitory concentration index in presence of gentamycin by checkerboard assay; assay type: functional
Escherichia coli [34] = experiment: Synergistic antibacterial activity against Escherichia coli ATCC 35218 assessed as fractional inhibitory concentration index in presence of amikacin by checkerboard assay; assay type: functional
Escherichia coli [35] = experiment: Synergistic antibacterial activity against Escherichia coli ATCC 35218 assessed as fractional inhibitory concentration index in presence of gentamycin by checkerboard assay; assay type: functional
Escherichia coli [36] = experiment: Synergistic antibacterial activity against multi-drug resistant Escherichia coli clinical isolate 1 assessed as fractional inhibitory concentration index in presence of amikacin by checkerboard assay; assay type: functional
Escherichia coli [37] = experiment: Synergistic antibacterial activity against Escherichia coli CG-4 expressing MCR-1 and NDM-1 assessed as fractional inhibitory concentration index in presence of gentamycin by checkerboard assay; assay type: functional
Klebsiella pneumoniae = experiment: Synergistic antibacterial activity against Klebsiella pneumoniae assessed as inhibition of bacterial growth in presence of polymyxin B by checkerboard assay; assay type: functional, organism-based
Acinetobacter baumannii [38] = experiment: Antibacterial activity against Acinetobacter baumannii ATCC 19606 assessed as inhibition of bacterial growth by measuring decrease in bacterial count at 6.25 to 50 microg/ml measured after 12 hrs by time-kill kinetics analysis; assay type: functional; details: dose 6.25-50 µg/ml
Pseudomonas aeruginosa [39] = experiment: Synergistic antibacterial activity against Pseudomonas aeruginosa assessed as inhibition of bacterial growth in presence of aminoglycoside by checkerboard assay; assay type: functional, organism-based
Escherichia coli [40] = experiment: Antibacterial activity against Escherichia coli ATCC 25922 assessed as inhibition of bacterial growth by measuring decrease in bacterial count at 6.25 to 50 microg/ml measured after 12 hrs by time-kill kinetics analysis; assay type: functional; details: dose 6.25-50 µg/ml
Bacteria = experiment: Binding affinity to His-tagged LptA (unknown origin) extracted from Escherichia coli BL21 (DE3) cells by BLI analysis

With `CN1CCOc2cc(/C=C/c3cc(C(C)(C)C)[o+]c(C(C)(C)C)c3)ccc21.O=S(=O)([O-])C(F)(F)F` the MIC (Escherichia coli [1]) was 25 µg/mL, the MIC (Pseudomonas aeruginosa [2]) was greater than 100 µg/mL and the MIC (Acinetobacter baumannii [3]) was 50 µg/mL. The MIC (Acinetobacter baumannii [4]) was 50 µg/mL, the MIC (Acinetobacter baumannii [5]) was 100 µg/mL and the MIC (Acinetobacter baumannii [6]) was 100 µg/mL. It also gave an MIC (Acinetobacter baumannii [7]) of 50 µg/mL, an MIC (Acinetobacter baumannii [8]) of 100 µg/mL and an MIC (Acinetobacter baumannii [9]) of 100 µg/mL. The MIC (Acinetobacter baumannii [10]) was 100 µg/mL, the MIC (Escherichia coli [11]) was no less than 100 µg/mL and the MIC (Acinetobacter baumannii [12]) was 0.006 µg/mL. The MIC (Acinetobacter baumannii [13]) was 0.006 µg/mL, the MIC (Acinetobacter baumannii [14]) was 1 10^-4 ug/ml and the MIC (Escherichia coli [15]) was 7.8 10^-4 ug/ml. It also gave an MIC (Escherichia coli [16]) of 0.2 µg/mL, an MIC (Acinetobacter baumannii [17]) of 6.25 µg/mL and an MIC (Acinetobacter baumannii [18]) of 12.5 µg/mL. For the same compound, the MIC (Acinetobacter baumannii [19]) was 25 µg/mL, the MIC (Escherichia coli [20]) was 12.5 µg/mL and the MIC (Escherichia coli [21]) was 12.5 µg/mL. The MIC (Escherichia coli [22]) was 3.13 µg/mL, the “fractional inhibitory concentration index (FICI)” value (Acinetobacter baumannii [23]) was 0.25 and the “fractional inhibitory concentration index (FICI)” value (Acinetobacter baumannii [24]) was less than 0.126. The “fractional inhibitory concentration index (FICI)” value (Escherichia coli [25]) was 0.266, the “fractional inhibitory concentration index (FICI)” value (Escherichia coli [26]) was 0.047 and the “fractional inhibitory concentration index (FICI)” value (Escherichia coli [27]) was 0.156. The “fractional inhibitory concentration index (FICI)” value (Acinetobacter baumannii [28]) was 0.125, the “fractional inhibitory concentration index (FICI)” value (Acinetobacter baumannii [29]) was 0.125 and the “fractional inhibitory concentration index (FICI)” value (Acinetobacter baumannii [30]) was 0.125. For the same compound, the “fractional inhibitory concentration index (FICI)” value (Acinetobacter baumannii [31]) was 0.125, the “fractional inhibitory concentration index (FICI)” value (Acinetobacter baumannii [32]) was 0.125 and the “fractional inhibitory concentration index (FICI)” value (Acinetobacter baumannii [33]) was 0.125. The “fractional inhibitory concentration index (FICI)” value (Escherichia coli [34]) was 0.125, the “fractional inhibitory concentration index (FICI)” value (Escherichia coli [35]) was 0.125 and the “fractional inhibitory concentration index (FICI)” value (Escherichia coli [36]) was 0.125. For the same compound, the “fractional inhibitory concentration index (FICI)” value (Escherichia coli [37]) was 0.125, the Activity (Klebsiella pneumoniae) was “inactive” and the Activity (Acinetobacter baumannii [38]) was less than 6 log10CFU/ml. For the same compound, the Activity (Pseudomonas aeruginosa [39]) was “inactive”, the Activity (Escherichia coli [40]) was less than 6 log10CFU/ml and the Activity (Bacteria) was “inactive”.
